This passage reports MIC, ED50 and Antibacterial spectra results from patent publication US4421912A, “Cephalosporin derivatives” (Takeda Chemical Industries, Ltd., priority 1973, dated 1983).

The subject of one experiment is S. aureus 1840. Kind of experiment: Antibacterial spectra, agar dilution method. Format: cell-based.
Excerpt: (§1) (mcg/ml., agar dilution method)
as §1
(§2) (mcg/ml, agar dilution method)
(§3) (mcg./ml., agar dilution method)

Another experiment concerns S. aureus 209P. Kind of experiment: Antibacterial spectra, agar dilution method. The experiment is classed as cell-based. To be noted: Staphylococcus aureus.
Excerpt: as §1, §1, §2, §3
(In general: In agar dilution the substance is mixed into plates at graded concentrations.)

A further experiment concerns E. coli NIHJ JC-2. Description: Antibacterial spectra, agar dilution method. To be noted: Escherichia coli. Format: cell-based.
Excerpt: as §1, §1, §2, §3

A further experiment deals with P. vulgaris Eb-57. Kind of experiment: Antibacterial spectra, agar dilution method. Format: cell-based. To be noted: Proteus vulgaris. From the text:
|(mcg/ml., agar dilution method)

The next experiment deals with K. pneumoniae DT. Kind of experiment: Antibacterial spectra, agar dilution method. To be noted: Klebsiella pneumoniae. Format: cell-based.
Another experiment has as its system Escherichia coli 0111. Description: Protective Effect on Infected Mice. Format: in vivo. To be noted: Escherichia coli, 0111, sc, 168 h, male ICR/SLC mice, i.p. E. coli 0111, single subcutaneous dose immediately after challenge, 7 days. From the text: Protective Effect (ED50 * , mg/kg) on Infected Mice
*Test animals: male mice (ICR/SLC) 5 mice per group per single dose
Infection: intraperitoneally with Escherichia coli 0111
Administration: a single subcutaneous dose immediately after challenge
Observation period: 7 days
*Test animals: male mice (ICR/SLC) 5 mice per group single dose

A further experiment concerns E. coli 0-111. Kind of experiment: Antibacterial spectra, agar dilution method. Format: cell-based.
Excerpt: as §1, §1, §2, §3

For another experiment, the system named is P. vulgaris Eb-58. Kind of experiment: Antibacterial spectra, agar dilution method. The experiment is classed as cell-based. To be noted: Proteus vulgaris, EB58, tables in Examples 13 and 16.
Excerpt: as §1, §2

The subject of the next experiment is P. morganii Eb53. Description: Antibacterial spectra, agar dilution method. To be noted: P. morganii Eb53, agar dilution method; for MIC: Morganella morganii, read-out: Antibacterial spectra. The experiment is classed as cell-based.
Excerpt: as §2, §3

The test system of another experiment is E. coli T-7. Kind of experiment: Antibacterial spectra, agar dilution method. To be noted: Escherichia coli, T7; E. coli T-7; agar dilution method; Table 11; read-out: Antibacterial spectra. Format: cell-based. The text has this:
(§4) |(mcg./ml., agar dilution method)

In a further experiment the test system is P. vulgaris IFO 3988. Kind of experiment: Antibacterial spectra, agar dilution method. The experiment is classed as cell-based. To be noted: Proteus vulgaris, IFO3988; P. vulgaris IFO 3988; agar dilution method; Table 11; read-out: Antibacterial spectra.
Excerpt: as §4

Where [1] appears, read: Staphylococcus aureus, 1840, read-out: Antibacterial spectra, S. aureus 1840, tables in the Examples.
The mark [2] stands for this setting: 209P, read-out: Antibacterial spectra, S. aureus 209P, tables in the Examples.
The mark [3] stands for this setting: Staphylococcus aureus, 1840, read-out: Antibacterial spectra, S. aureus 1840, Table 11.
Setting [4] is: Escherichia coli, 0111, E. coli 0-111, Table 11.
Where [5] appears, read: Escherichia coli, 0111, E. coli 0-111, tables in the Examples.
The mark [6] stands for this setting: 209P, read-out: Antibacterial spectra, S. aureus 209P, Table 11.
The mark [7] stands for this setting: S. aureus 209P, tables in the Examples, read-out: Antibacterial spectra.
[8] abbreviates: NIHJJC2, read-out: Antibacterial spectra, E. coli NIHJ JC-2, Table 11.
[9] abbreviates: NIHJJC2, read-out: Antibacterial spectra, E. coli NIHJ JC-2, tables in the Examples.
Setting [10] is: EB57, P. vulgaris Eb-57, agar dilution method, table in Example 10, read-out: Antibacterial spectra.

Structures are written as SMILES. In brackets after ≈: the same amount, converted by molar mass. Where two headings read alike, the source gives them in different places.

By ED50 is commonly meant the dose at which the effect has come halfway, by size or by number of responders.

Regarding `CC(=O)OCC1=C(C(=O)O)N2C(=O)C(NC(=O)Cc3csc(N)n3)C2SC1` (centres unmarked) [Example 10, sodium 7-[2-(2-aminothiazol-4-yl)acetamido]-3-acetoxymethyl-3-cephem-4-carboxylat], the MIC was 1.56 µg/mL with S. aureus 1840 (setting [1]); < 0.78 µg/mL in the experiment with S. aureus 209P (setting [2]); 1.56 µg/mL in the experiment with E. coli NIHJ JC-2 (NIHJJC2, E. coli NIHJ JC-2, tables in the Examples, read-out: Antibacterial spectra); < 0.78 µg/mL in the experiment on P. vulgaris Eb-57 (EB57, read-out: Antibacterial spectra); < 0.78 µg/mL with K. pneumoniae DT (tables in the Examples).
With `O=C(Cc1cccs1)N[C@@H]1C(=O)N2C(C(=O)[O-])=C(C[n+]3ccccc3)CS[C@H]12` [Cephaloridine, reference compound], the ED50 in the experiment with Escherichia coli 0111 (Table 12, read-out: Protective Effect (ED50) on Infected Mice) was found to be 2.81 mg/kg; with Escherichia coli 0111 (Table 13, read-out: ED50) it was 1.94 mg/kg; in the experiment on Escherichia coli 0111 (Table 14, read-out: ED50), 3.57 mg/kg. For the same compound, the MIC is 0.39 µg/mL (≈ 0.939 µM) in the experiment on S. aureus 1840 (setting [3]); 0.39 µg/mL (≈ 0.939 µM) in the experiment with S. aureus 1840 (setting [1]); 1.56 µg/mL (≈ 3.75 µM) in the experiment with E. coli 0-111 (setting [4]); 3.12 µg/mL (≈ 7.52 µM) with E. coli 0-111 (setting [5]); ≤ 0.2 µg/mL with S. aureus 209P (setting [6]); 0.05 µg/mL (≈ 0.12 µM) in the experiment with S. aureus 209P (setting [7]). The MIC was 3.13 µg/mL (≈ 7.53 µM) in the experiment on E. coli NIHJ JC-2 (setting [8]); 6.25 µg/mL (≈ 15 µM) in the experiment on E. coli NIHJ JC-2 (setting [9]); 12.5 µg/mL (≈ 30.1 µM) in the experiment on P. vulgaris Eb-58; > 100 µg/mL in the experiment with P. morganii Eb53 (Table 11); > 100 µg/mL in the experiment with P. vulgaris Eb-57 (setting [10]); 1.56 µg/mL (≈ 3.75 µM) with K. pneumoniae DT (Table 11). The MIC was 3.12 µg/mL (≈ 7.52 µM) against K. pneumoniae DT (tables in the Examples), > 100 µg/mL in the experiment with E. coli T-7 and 6.25 µg/mL (≈ 15 µM) in the experiment on P. vulgaris IFO 3988. For the same compound, the Antibacterial spectra with P. morganii Eb53 (table in Example 16) is > 100 µg/mL.
As to `Cn1nnnc1SCC1=C(C(=O)O)N2C(=O)C(NC(=O)Cc3csc(N)n3)C2SC1` (centres unmarked) [Example 16, sodium 7-[2-(2-aminothiazol-4-yl)acetamido]-3-(1-methyltetrazol-5-yl)thiomethyl-3-cephem-4-carboxylate], the ED50 in the experiment with Escherichia coli 0111 (Table 14, read-out: ED50) was 0.89 mg/kg. The MIC came to 0.78 µg/mL in the experiment with S. aureus 1840 (setting [1]); 0.2 µg/mL in the experiment with E. coli 0-111 (setting [5]); 0.39 µg/mL in the experiment with S. aureus 209P (setting [2]); 0.39 µg/mL in the experiment with E. coli NIHJ JC-2 (setting [9]); 0.39 µg/mL with P. vulgaris Eb-58; 3.12 µg/mL with P. morganii Eb53 (table in Example 16). In addition, the MIC in the experiment on K. pneumoniae DT (tables in the Examples) was < 0.1 µg/mL.
With `Cc1nnc(SCC2=C(C(=O)O)N3C(=O)[C@@H](NC(=O)Cn4cnnn4)[C@H]3SC2)s1` [Cephazolin, reference compound], the 50% effective dose (ED50) with Escherichia coli 0111 (Table 14, read-out: ED50) was found to be 3.1 mg/kg. The MIC was 0.78 µg/mL (≈ 1.72 µM) in the experiment with S. aureus 1840 (setting [3]); 1.56 µg/mL (≈ 3.43 µM) in the experiment on S. aureus 1840 (setting [1]); 0.78 µg/mL (≈ 1.72 µM) in the experiment on E. coli 0-111 (setting [4]); 1.56 µg/mL (≈ 3.43 µM) with E. coli 0-111 (setting [5]); ≤ 0.2 µg/mL in the experiment with S. aureus 209P (setting [6]); 0.1 µg/mL (≈ 0.22 µM) in the experiment with S. aureus 209P (setting [2]). Also, the MIC in the experiment with S. aureus 209P (setting [7]) is 0.01 µg/mL (≈ 0.022 µM); in the experiment with E. coli NIHJ JC-2 (setting [8]), 1.56 µg/mL (≈ 3.43 µM); with E. coli NIHJ JC-2 (setting [9]) it was 1.56 µg/mL (≈ 3.43 µM); in the experiment with P. vulgaris Eb-58 it was 6.25 µg/mL (≈ 13.8 µM); in the experiment with P. morganii Eb53 (Table 11), 100 µg/mL (≈ 220 µM); with P. vulgaris Eb-57 (setting [10]) it was 50 µg/mL (≈ 110 µM). In addition, the MIC against K. pneumoniae DT (Table 11) was determined as 1.56 µg/mL (≈ 3.43 µM); in the experiment on K. pneumoniae DT (tables in the Examples) it was 1.56 µg/mL (≈ 3.43 µM); in the experiment with E. coli T-7, 50 µg/mL (≈ 110 µM); in the experiment with P. vulgaris IFO 3988 it was 6.25 µg/mL (≈ 13.8 µM). The compound also had an Antibacterial spectra with P. morganii Eb53 (table in Example 16) of 100 µg/mL.
